Test results: patent publication US9695179B2, “Methods and compositions for inhibition of bromodomain-containing proteins” (CONVERGENE LLC, priority 2013, dated 2017)

Key:
[1] = tested on: MV4-11 acute myeloid leukemia cells; assay: In vitro cell viability (AlamarBlue), MV4-11; assay type: cell-based; conditions: Homo sapiens, MV4-11 cells, 72-hour incubation, read-out: In Vitro Cell Viability (IC50) MV4-11 Cells (AML)
Description: (§1) MV4-11 acute myeloid leukemia cells (American Type Culture Collection, Manassas, Va.) were added to 96-well clear bottom assay plates containing RPMI-1640 medium supplemented with 10% fetal bovine serum (FBS) at approximately 30,000 cells/well and incubated for 24 hours at 37° C. with 5% CO2 and 95% humidity. Control wells containing no cells were included to measure background fluorescence signal. Test compounds were dissolved at […] and diluted two-fold in DMSO to produce a working stock of compound solutions. Aliquots of the working stock solutions were subsequently diluted 100-fold in basal RPMI-1640 medium which was then further diluted 10-fold to the assay plate containing the cells to provide 10 test concentrations ranging from 0.04 μM-20 μM. Following a 72-hour incubation period, viability of the cells was determined by the AlamarBlue® assay (Life Technologies, Carlsbad, Calif.) following the manufacturer's protocol. Prior to generation of dose response curves, the data were background subtracted using the no cell control values (mean+/−standard deviation) and fluorescence values versus Log10 concentration of test compounds were plotted using GraphPad Prism. The resulting sigmoidal curve was then fit to the graph and IC50 values were calculated using a 4 parameter (4PL) algorithm using the following equation: 4(PL)F(x)=(A−D)/(1+(x/c)^B+D, where A=lower asymptote (baseline response), D=upper asymptote (maximum response), C=drug concentration that provokes a response halfway between A and D, B=slope of the curve. The results for selected compounds are set forth in Table 7.

[2] = tested on: MM1.S Cells (Multiple Myeloma); assay: In vitro cell viability, MM1.S; assay type: cell-based; conditions: Homo sapiens
Description: [Worded in the source for another cell line; this cell line is reported under the same test.] as §1

[3] = biological target: BRD4-BD1-BD2 (Homo sapiens (Human), UniProt O60885); assay: AlphaScreening assay, recombinant BRD4-BD1-BD2 and BET Ligand; assay type: binding; conditions: 2.5 nM BRD4-BD1-BD2, BET Ligand
Description: Assays were performed by AlphaScreening technology using a recombinant BRD4-BD1-BD2 and BET Ligand. The AlphaScreening signal from the assay was correlated with the amount of BET Ligand binding to the bromodomain. The compounds were diluted in 50% DMSO and 1 μl of the dilution was added to a 10 μl reaction so that the final concentration of DMSO is 5% in all of reactions. All reactions were conducted at room temperature. The 9 μl reaction mixture in BRD Assay Buffer contains 2.5 nM BRD4-BD1-BD2 and the indicated amount of the inhibitor, and the reaction mixture were incubated for 30 min followed by additional 30 min incubation after the addition of 1 μl of BET Ligand (Table 2.3.1). For the negative control (blank), 1 μl of the assay buffer was added instead of the BET Ligand. After the 30 min incubation with the BET Ligand, 20 μl of BRD Detection buffer containing 10 μg/ml Glutathione acceptor beads and 10 μg/ml Streptavidin Donor beads was added and the final 30 μl mixture was incubated for 50 min in a dark room.
AlphaScreening signal was measured using EnSpire Alpha 2390 Multilabel reader (Perkin Elmer). Binding experiments were performed in duplicate at each concentration. The AlphaScreening data were analyzed using the computer software, Graphpad Prism. In the absence of the compound, the AlphaScreening signal (At) in each data set was defined as 100% activity. In the absence of the BET Ligand, the AlphaScreening signal (Ab) in each data set was defined as 0% activity. The percent activity in the presence of each compound was calculated according to the following equation: % activity=[(A−Ab)/(At−Ab)]×100, where A=the AlphaScreening signal in the presence of the compound, Ab=the AlphaScreening signal in the absence of the BET Ligand, and At=the AlphaScreening signal in the absence of the compound. The percent inhibition was calculated for certain compounds according to the following equation: % inhibition=100−% activity.

COc1ccccc1/C=C/C(=O)c1c(-c2ccccc2)c2cc(Cl)ccc2[nH]c1=O [Compound 5, 6-chloro-3-(3-(2-methoxyphenyl)acryloyl)-4-phenylquinolin-2(1H)-one]
IC50 [1]: 1490 nM | IC50 [2]: 2530 nM

COc1ccc(/C=C/C(=O)c2c(-c3ccccc3)c3cc(Cl)ccc3[nH]c2=O)cc1OC [Compound 6, 6-chloro-3-(3-(3,4-dimethoxyphenyl)acryloyl)-4-phenylquinolin-2(1H)-one]
IC50 [1]: 3570 nM | IC50 [2]: 31900 nM

COc1ccc(OC)c(/C=C/C(=O)c2c(-c3ccccc3)c3cc(Br)ccc3[nH]c2=O)c1 [Compound 10, 6-bromo-3-(3-(2,5-dimethoxyphenyl)acryloyl)-4-phenylquinolin-2(1H)-one]
IC50 [1]: 1750 nM | IC50 [2]: 3000 nM

O=C(/C=C/c1ccccc1)c1c(-c2ccncc2)c2cc(Cl)ccc2[nH]c1=O [Compound 11, 6-chloro-3-cinnamoyl-4-(pyridin-4-yl)quinolin-2(1H)-one]
IC50 [1]: 970 nM | IC50 [2]: 4210 nM

Cc1ccccc1/C=C/C(=O)c1c(-c2cccnc2)c2cc(Cl)ccc2[nH]c1=O [Compound 12, 6-chloro-4-(pyridin-3-yl)-3-(3-o-tolylacryloyl)quinolin-2(1H)-one]
IC50 [1]: 1040 nM | IC50 [2]: 2440 nM

Cc1ccccc1CNC(=O)c1c(-c2ccccc2)c2cc(Cl)ccc2[nH]c1=O [Compound 13, 6-chloro-N-(2-methylbenzyl)-2-oxo-4-phenyl-1,2-dihydroquinoline-3-carboxamide]
IC50 [1]: 4730 nM | IC50 [2]: 3100 nM

O=C(/C=C/c1ccccc1)c1c(-c2ccccc2)c2cc(Cl)cnc2[nH]c1=O [Compound 14, 6-chloro-3-cinnamoyl-4-phenyl-1,8-naphthyridin-2(1H)-one]
IC50 [1]: 710 nM | IC50 [2]: 14100 nM

COc1ccc(Cn2c(=O)c(-c3coc(C)n3)c(OS(=O)(=O)c3ccccc3)c3cc(Cl)ccc32)cc1 [drawing 651]
inhibition at 10 µM [3]: 98%

COc1ccc(Cn2c(=O)c(-c3coc(C)n3)c(OS(=O)(=O)c3cccc4cccnc34)c3cc(Cl)ccc32)cc1 [drawing 652]
inhibition at 10 µM [3]: 98%

COc1ccc(Cn2c(=O)c(-c3coc(C)n3)c(OS(=O)(=O)c3ccc(C)cc3)c3cc(Cl)ccc32)cc1 [drawing 653]
inhibition at 10 µM [3]: 99%

COc1ccc(Cn2c(=O)c(-c3coc(C)n3)c(OS(=O)(=O)c3ccc(F)cc3)c3cc(Cl)ccc32)cc1 [drawing 654]
inhibition at 10 µM [3]: 99%

COc1ccc(Cn2c(=O)c(-c3coc(C)n3)c(OS(=O)(=O)c3ccc(Cl)cc3)c3cc(Cl)ccc32)cc1 [drawing 655]
inhibition at 10 µM [3]: 99%

COc1ccc(Cn2c(=O)c(-c3coc(C)n3)c(OS(=O)(=O)c3ccc4ccccc4c3)c3cc(Cl)ccc32)cc1 [drawing 656]
inhibition at 10 µM [3]: 99%

COc1ccc(Cn2c(=O)c(-c3coc(C)n3)c(OS(=O)(=O)c3ccc(-c4ccccc4)cc3)c3cc(Cl)ccc32)cc1 [drawing 657]
inhibition at 10 µM [3]: 99%
